This is an account of results in patent US5430042A, “Dialkoxy-pyridinyl-benzimidazole derivatives, process for their preparation and their pharmaceutical use” (priority 1990, dated 1995).

In data set [1] the test system is gastric acid secretion. Kind of data set: Inhibition of Gastric Acid Secretion in the Conscious Female Rat, iv. The data set is classed as in vivo, rat (Sprague-Dawley). On the procedure: (§1) The potency for inhibition of acid secretion is measured in the dog, intravenously (iv) and in the female rat, intravenously (iv).
Female rats of the Sprague-Dawley strain are used. They are equipped with cannulated fistulae in the stomach (lumen) for collection of gastric secretions. A fourteen days recovery period after surgery is allowed before testing is commenced.
Before secretory tests, the animals are deprived of food but not water for 20 h. The stomach is repeatedly washed through the gastric cannula, and 6 ml of Ringer-Glucose given s.c. Acid secretion is stimulated with infusion during 3.5 h (1.2 ml/h, s.c.) of pentagastrin and carbachol (20 and 110 nmol/kg h, respectively), during which time gastric secretions are collected in 30-min fractions. Test substances or vehicle are given iv at 90 min after starting the stimulation, in a volume of 1 ml/kg. Gastric juice samples are titrated to pH 7.0 with NaOH, 0.1 mol/L, and acid output is calculated as the product of titrant volume and concentration. Further calculations are based on group mean responses from 4-7 rats. The acid output during the periods after administration of test substances or vehicle are expressed as fractional responses, setting the acid output in the 30-min period preceding administration to 1.0. Percentage inhibition is calculated from the fractional responses elicited by test compound and vehicle. […]

In data set [2] the test system is gastric acid secretion. Kind of data set: Inhibition of Gastric Acid Secretion in the Conscious Dog, iv. The data set is classed as in vivo, dog (Harrier). The note with it: Canis lupus familiaris, histamine-stimulated, acid output 2 h after dosing, read-out: Inhibition of acid secretion iv administration ED50, Dog. On the procedure:
as §1
Harrier dogs of either sex were used. They were equipped with a duodenal fistula for the administration of test compounds or vehicle and a Heidenhain-pouch for the collection of gastric secretions.
Before secretory tests the animals were fasted for about 18 h but water was freely allowed. Gastric acid secretion was stimulated by a 4 h infusion of histamine dihydrochloride (12 ml/h) at a dose producing about 80% of the individual maximal secretory response, and gastric juice collected in consecutive 30-min fractions. Test substance or vehicle was given iv 1 h after starting the histamine infusion, in a volume of 0.5 ml/kg body weight. The acidity of the gastric juice samples were determined by titration to pH 7.0, and the acid output calculated. The acid output in the collection periods after administration of test substance or vehicle were expressed as fractional responses, setting the acid output in the fraction preceding administration to 1.0. Percentage inhibition was calculated from fractional responses elicited by test compound and vehicle. ED50 -values were obtained by graphical interpolation on log dose--response curves, or estimated from single-dose experiments under the assumption of the same slope of the dose-response curve for all test compounds. […]

Data set [3] relates to uptake of ^125 I in the thyroid gland. Put plainly: Effect on the Accumulation of ^125 I in the Thyroid Gland. The note with it: oral gavage, male rat, 4 h after ^125 I. Format: in vivo, rat (Sprague-Dawley). The method, then: The effect of a compound within the invention of the formula I on the uptake of iodine into the thyroid gland is measured as an effect on the accumulation of ^125 I in the thyroid gland.
The accumulation of ^125 I in the thyroid gland was studied in male, Sprague-Dawley rats which were deprived of food for 24 hours before the test. The experimental protocol of Searle, C. E. et al. (Biochem J 1950, 47:77-81) was followed.
Test substances suspended in 0.5% buffered (pH 9) methocel, were administered by oral gavage in a volume of 5 ml/kg body weight. After 1 hour, ^125 I (300 kBqkg, 3 ml/kg) was administered by intraperitoneal injection. Four hours after ^125 I-administration, the animals were killed by CO2 -asphyxiation and bled. The thyroid gland together with a piece of the trachea was dissected out and placed in a small test tube for the assay of radioactivity in a gamma counter (LKB-Wallac model 1282 Compugamma). Percentage inhibition was calculated according to the formula 100 (1-T/P), where T and P is the mean radioactivety of thyroid glands from animals treated with test agent and placebo (buffered methocel), respectively. The statistical significane for a difference between test agent- and placebo-treated animals was assessed with the Mann-Whitney U-test (two-tailed). P<0.05 was accepted as significant.

Data set [4] in a line: Chemical Stability at pH 7 in aqueous buffer. The data set is classed as physicochemical. Conditions: pH 7, 37° C., low concentration, read-out: Chemical stability at pH 7 half-life (t 1/2). The method, then:
The chemical stability of a compound of the invention is followed kinetically at low cencentration at 37° C. in aqueous buffer solution at different pH values. The results in Table 4 show the half life (t 1/2) at pH 7, that is the time period after which half the amount of the original compound remains unchanged.

A short description of data set [5]: Bioavailability in the Male Rat (id vs iv AUC). The data set is classed as in vivo, rat (Sprague-Dawley). Conditions: blood, 4 umol/kg, intraduodenal vs iv, 4 μmol/kg, read-out: Bioavailability F %, Rat. The method, then: Biovailability is assessed by calculating the quotient between the area under plasma concentration (AUC) curve following intreduodenal (id) administration and intravenous (iv) administration from the rat.
Male adult rats of the Sprague-Dawley strain were used. One day, prior to the experiments, all rats were prepared by cannulation of the left carotid artery under anaesthesia. The rats used for the intravenous experiments, were also cannulated in the jugular vein. (Ref. V. Popovic and P. Popovic, J Appl Physiol 1960;15,727-728). The rats used for the intraduodenal experiments, were also cannulated in the upper part of the duodenum. The cannulas were exteriorized at the nape of the neck. The rats were housed individually after surgery and were deprived of food, but not water, before administration of the test substances. The same dose (4 μmol/kg) were given iv and id as a bolus for about one minute (2 ml/kg).
Blood samples (0.1-0.4 g) were drawn repeatedly from the carotid artery at intervals up to 4 hours after given dose. […]
The area under the blood concentration vs time curve, AUC, was determined by the linear trapezoidal rule and extrapolated to infinity by dividing the last determined blood concentration by the elimination rate constant in the terminal phase.
The systemic bioavailability (F %) following intraduodenal administration was calculated as [formula]

For `CC(=O)c1cc2nc([S+]([O-])Cc3nccc4c3OCCO4)[nH]c2cc1C` (centres unmarked) [Example 2, 5-Acetyl-6-methyl-2-[[(3,4-ethylendioxy-2-pyridinyl)methyl]sulfinyl]-1H-benzimidazole], in the data set on gastric acid secretion [1] (1 μmol/kg iv), the “inhibition of acid secretion, Rat” value amounted to 14%.

On to `COC(=O)c1cc2nc([S+]([O-])Cc3nccc(OC)c3OC)[nH]c2cc1C` (centres unmarked) [Example 3, 5-Carbomethoxy-6-methyl-2-[[(3,4-dimethoxy-2-pyridinyl)methyl]sulfinyl]-1H-benzimidazole], for which, in the data set with gastric acid secretion [2], the ED50 was found to be 0.5 µmol/kg. Moreover, the “Percent inhibition of 400 μmol/kg on the uptake of ^125 I in the thyroid gland” value (“Percent inhibition of 400 μmol/kg” below) in data set [3] was found to be 0%. Besides, the half-life in data set [4] amounted to 8 h.

Consider `COc1ccnc(C[S+]([O-])c2nc3cc(C(C)=O)c(C)cc3[nH]2)c1OC` (centres unmarked) [Example 4, 5-Acetyl-6-methyl-2-[[(3,4-dimethoxy-2-pyridinyl)methyl]sulfinyl]-1H-benzimidazole], for which the ED50 in the data set on gastric acid secretion [2] is 0.74 µmol/kg; in the data set with gastric acid secretion [1] (2 h, iv, pentagastrin and carbachol stimulated, second hour after drug, read-out: Inhibition of acid secretion iv administration ED50, Rat), 0.9 µmol/kg. For the same compound, the bioavailability (as a rule, dose-corrected exposure relative to a reference, in per cent) in data set [5] is > 100%. Further, the “Percent inhibition of 400 μmol/kg” value in data set [3] is given as -7%. Moreover, in data set [4], the half-life stood at 7.83 h.

Regarding `CCOC(=O)c1ccc2[nH]c([S+]([O-])Cc3nccc(OC)c3OC)nc2c1` (centres unmarked) [Example 5, 5-Carbethoxy-2-[[(3,4-dimethoxy-2pyridinyl)methyl]sulfinyl]-1H-benzimidazole], the “Percent inhibition of 400 μmol/kg” value in data set [3] is recorded as -6%. Also, the half-life in data set [4] came out at 4.5 h.
